Values quoted from earlier work, collected in patent US20030162756A1, “Use of 2-hydroxy or 2-acetyloxy-4-trifluoromethylbenzoic acid derivatives as an agent for the treatment and prevention of mild cognitive impairment” (J. Uriach & CIA. S.A., priority 2001, published 2003).

System: platelet aggregation
Conditions: described in U.S. Pat. No. 4,096,252; cited from earlier work

## O=C(O)c1ccc(C(F)(F)F)cc1O [HTB, 2-hydroxy-4-trifluoromethylbenzoic acid]
  activity as platelet anti-aggregant: remarkable activity as platelet anti-aggregant
